Test results from US20250304537A1 (Repare Therapeutics Inc., priority 2022, published 2025).
Read-outs that look alike come from different tables or passages of the source.

What was measured:
[1] = test system: PKMYT1 (CDK1 pThr14) in FUOV1 cells; assay: PKMYT1 cell-based activity assay, CDK1 pThr14 AlphaLISA in FUOV1 cells; settings: read-out: FUOV-1 CDK1 pThr14 IC50
Outline: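 IC50 was derived from AlphaLISA signal (excitation 680 nm, emission 615 nm) for phospho-Thr14 CDK1 in lysates. The detection antibodies were rabbit anti-pThr14 and mouse anti-total CDK1, each at 5 nM. FUOV1 ovarian cells were exposed to compound for 2 hours before lysis.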

[2] = biological target: recombinant human Myt1 (full length PKMYT1) (Homo sapiens (Human), UniProt Q99640); assay: Recombinant human Myt1 kinase assay (ADP-Glo); format: biochemical; settings: 10 μM ATP
Sequence of recombinant human Myt1 (full length PKMYT1) (Q99640 whole entry): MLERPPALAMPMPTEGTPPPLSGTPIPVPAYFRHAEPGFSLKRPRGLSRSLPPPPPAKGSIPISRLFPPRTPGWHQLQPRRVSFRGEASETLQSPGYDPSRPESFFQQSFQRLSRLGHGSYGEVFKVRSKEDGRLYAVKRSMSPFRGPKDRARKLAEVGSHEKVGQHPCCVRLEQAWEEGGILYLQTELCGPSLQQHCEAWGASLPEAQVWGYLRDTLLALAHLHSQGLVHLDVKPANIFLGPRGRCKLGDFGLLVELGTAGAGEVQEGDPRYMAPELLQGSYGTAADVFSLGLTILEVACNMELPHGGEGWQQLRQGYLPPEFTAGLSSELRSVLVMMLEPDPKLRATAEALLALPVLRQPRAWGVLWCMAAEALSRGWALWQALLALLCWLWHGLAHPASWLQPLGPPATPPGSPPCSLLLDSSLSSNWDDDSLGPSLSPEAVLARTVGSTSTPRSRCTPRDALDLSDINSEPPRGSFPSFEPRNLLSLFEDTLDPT
Outline: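 ADP-Glo luminescence measured ATP hydrolysis by recombinant full-length PKMYT1 (18 nM) after 60 min at 30 °C with 10 μM ATP. Compounds in 0.5% DMSO were added to the enzyme 15 min before ATP, at 22 °C, in HEPES/MgCl2/MnCl2 buffer. IC50 and percent maximal inhibition were derived.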

| Compound | IC50 ([1]; 2 h, 2 h incubation) [nM] | IC50 [2] [nM] | IC50 ([1]; 2 h, 2 hours with compound) [nM] | IC50 ([1]; 2 h incubation) [nM] | IC50 ([1]; 2 h, 2 h compound incubation) [nM] |
| --- | --- | --- | --- | --- | --- |
| Cc1ccc2[nH]ncc2c1-c1cc(-c2ccnc(Nc3ccncc3)n2)nc(C(N)=O)c1N [Compound 200] | 154 | 11 |  |  |  |
| Cc1ccc(O)c(C)c1-c1cc(-c2ccnc(N)c2)nc(C(N)=O)c1N [Compound 45] |  | 2 |  | 60 |  |
| Cc1ccc2[nH]ncc2c1-c1cc(-c2cccc(OCc3nccn3C)n2)nc(C(N)=O)c1N [Compound 249] | 85 | 5 |  |  |  |
| NC(=O)c1nc(-c2ccccc2)nc(-c2c(Cl)ccc3[nH]ncc23)c1N [Compound 115, 5-amino-6-(5-chloro-1H-indazol-4-yl)-2-phenylpyrimidine-4-carboxamide] | 2230 | 15 |  |  |  |
| Cc1ccc(O)c(C)c1-c1cc(-c2ccnnc2)nc(C(N)=O)c1N [Compound 52] | 45 | 8 |  |  |  |
| Cc1ccc2[nH]ncc2c1-c1nc(-c2ccc(C(=O)O)cc2)nc(C(N)=O)c1N [Compound 146] | > 10000 | 23 |  |  |  |
| COCCOc1cccc(-c2cc(-c3c(C)ccc4[nH]ncc34)c(N)c(C(N)=O)n2)n1 [Compound 245] | 539 | 10 |  |  |  |
| COc1ccc(-c2cc(-c3c(C)ccc(O)c3C)c(N)c(C(N)=O)n2)nc1 [Compound 59] | 59 | 4 |  |  |  |
| Cc1ccc2[nH]ncc2c1-c1cc(-c2cccc(OCc3ncccn3)n2)nc(C(N)=O)c1N [Compound 184] | 51 | 6 |  |  |  |
| NC(=O)c1nc(-c2ccccn2)cc(-c2cccc3[nH]ncc23)c1N [Compound 70] | 1470 | 29 |  |  |  |
| Cc1ccc2[nH]ncc2c1-c1nc(-c2ccncc2)nc(C(N)=O)c1N [Compound 100] | 1230 | 27 |  |  |  |
| Cc1ccc2[nH]ncc2c1-c1cc(-c2cc(Cl)ccn2)nc(C(N)=O)c1N [Compound 257] | 1170 | 12 |  |  |  |
| Cc1ccc(O)c(C)c1-c1cc(-c2cccc(OC3CCOCC3)n2)nc(C(N)=O)c1N [Compound 94] |  | 2 |  | 31 |  |
| Cc1ccc2[nH]ncc2c1-c1cc(-c2ccnc(OCc3cccnc3)n2)nc(C(N)=O)c1N [Compound 164] | 473 | 14 |  |  |  |
| Cc1ccc(O)c(C)c1-c1cc(-c2cccc(C(F)(F)F)n2)nc(C(N)=O)c1N [Compound 60] | 1820 | 11 |  |  |  |
| Cc1ccc(O)c(C)c1-c1cc(-c2nccs2)nc(C(N)=O)c1N [Compound 13, 3-amino-4-(3-hydroxy-2,6-dimethylphenyl)-6-(thiazol-2-yl)picolinamide] | 64 | < 3.5 |  |  |  |
| Cc1ccc2[nH]ncc2c1-c1cc(-c2cccc(OCc3cccnc3)n2)nc(C(N)=O)c1N [Compound 179] | 423 | 7 |  |  |  |
| COc1cccc(-c2cc(-c3c(C)ccc(O)c3C)c(N)c(C(N)=O)n2)n1 [Compound 62] | 117 | 8 |  |  |  |
| Cc1ccc2[nH]ncc2c1-c1cc(-c2ccnc(OC3(C)COC3)n2)nc(C(N)=O)c1N [Compound 220] | 150 | 4 |  |  |  |
| Cc1ccc2[nH]ncc2c1-c1cc(-c2ccnc(N3CCOCC3)n2)nc(C(N)=O)c1N [Compound 198] | 970 | 9 |  |  |  |
| Cc1ccccc1-c1nc(C(N)=O)c(N)c(-c2cc(O)ccc2C)n1 [Compound 31] |  | 341 |  |  |  |
| CC(=O)c1ccc(-c2nc(C(N)=O)c(N)c(-c3c(C)ccc4[nH]ncc34)n2)cc1 [Compound 128] |  | 57 |  |  |  |
| Cc1ccc2[nH]ncc2c1-c1cc(-c2cccc(OCc3ncccn3)n2)nc(C(N)=O)c1N (atropisomer, axis not shown) [Compound 234] |  | 1880 |  |  |  |
| Cc1ccc2[nH]ncc2c1-c1cc(-c2ccnc(OCCN(C)C(=O)OC(C)(C)C)n2)nc(C(N)=O)c1N [Compound 209] |  | 73 |  |  |  |
| Cc1ccc2[nH]ncc2c1-c1cc(C(N)=O)nc(-c2ccccc2)n1 [Compound 76, 6-(5-methyl-1H-indazol-4-yl)-2-phenylpyrimidine-4-carboxamide] |  | > 2000 |  |  |  |

Further lines, results first:

| IC50 ([1]; 2 h, 2 h incubation) [nM] | IC50 [2] [nM] | IC50 ([1]; 2 h, 2 hours with compound) [nM] | IC50 ([1]; 2 h incubation) [nM] | IC50 ([1]; 2 h, 2 h compound incubation) [nM] | Compound |
| --- | --- | --- | --- | --- | --- |
|  | < 3 | 10 |  |  | Cc1ccc2[nH]ncc2c1-c1nc(-c2cccnc2N[C@@H]2CCOCC2(C)C)nc(C(N)=O)c1N [Compound 829] |
| 772 | 6 |  |  |  | Cc1ccc2[nH]ncc2c1-c1nc(-c2cccc3ncsc23)nc(C(N)=O)c1N [Compound 380] |
| 351 | 6 |  |  |  | COC(C)(C)COc1nccc(-c2cc(-c3c(C)ccc4[nH]ncc34)c(N)c(C(N)=O)n2)n1 [Compound 327] |
|  | 4 |  |  | 13 | Cc1ccc2[nH]ncc2c1-c1nc(-c2ccccc2NC(=O)C2CC2)nc(C(N)=O)c1N [Compound 397] |
|  | 8 |  |  | 59 | Cc1ccc(NC(=O)C2(C)CC2)c(-c2nc(C(N)=O)c(N)c(-c3c(C)ccc4[nH]ncc34)n2)c1 [Compound 437] |
| 1180 | 400 |  |  |  | CC[C@@H](COc1nccc(-c2cc(-c3c(C)ccc4[nH]ncc34)c(N)c(C(N)=O)n2)n1)OC (atropisomer, axis not shown) [Compound 334] |
|  | 10 |  |  | 37 | COc1cccnc1Nc1cc(F)ccc1-c1nc(C(N)=O)c(N)c(-c2c(C)ccc3[nH]ncc23)n1 [Compound 614] |
|  | 6 |  |  | 77 | Cc1ccc2[nH]ncc2c1-c1nc(-c2cc(F)c(F)cc2NC2CCOCC2)nc(C(N)=O)c1N [Compound 466, 5-amino-2-(4,5-difluoro-2-((tetrahydro-2H-pyran-4-yl)amino)phenyl)-6-(5-methyl-1H-indazol-4-yl)pyrimidine-4-carboxamide] |
|  | 13 | 1610 |  |  | Cc1ccc2[nH]ncc2c1-c1nc(-c2cccnc2NCCn2ccnc2C)nc(C(N)=O)c1N [Compound 884] |
|  | 3 |  |  | 6 | Cc1ccc2[nH]ncc2c1-c1nc(-c2ccccc2NC(=O)C2(F)CC2)nc(C(N)=O)c1N [Compound 461] |
|  | 3880 | > 10000 |  |  | Cc1ccc2[nH]ncc2c1-c1nc(Nc2ncccc2-c2ccncn2)nc(C(N)=O)c1N [Compound 818, 5-amino-6-(5-methyl-1H-indazol-4-yl)-2-((3-(pyrimidin-4-yl)pyridin-2-yl)amino)pyrimidine-4-carboxamide] |
|  | 3 |  |  | 41 | Cc1ccc2[nH]ncc2c1-c1nc(-c2ccc(F)cc2Nc2ccnc(C#N)c2)nc(C(N)=O)c1N [Compound 620] |
|  | 3 |  |  | 41 | Cc1nccc(Nc2cc(C#N)ccc2-c2nc(C(N)=O)c(N)c(-c3c(C)ccc4[nH]ncc34)n2)n1 [Compound 766] |
|  | 4 |  |  | 283 | Cc1ccc2[nH]ncc2c1-c1nc(-c2cccnc2N[C@@H]2CCO[C@@H](C)C2)nc(C(N)=O)c1N [Compound 605] |
|  | 44 |  |  | 1270 | Cc1ccc2[nH]ncc2c1-c1nc(-c2ccccc2C(O)c2ccccn2)nc(C(N)=O)c1N (stereo not drawn) [Compound 788] |
|  | 16 |  |  | 794 | Cc1ccc2[nH]ncc2c1-c1nc(-c2cccnc2NCC2CCCCO2)nc(C(N)=O)c1N (stereo not drawn) [Compound 604] |

| IC50 ([1]; 2 h, 2 h incubation) [nM] | IC50 [2] [nM] | IC50 ([1]; 2 h, 2 hours with compound) [nM] | IC50 ([1]; 2 h incubation) [nM] | IC50 ([1]; 2 h, 2 h compound incubation) [nM] | Compound |
| --- | --- | --- | --- | --- | --- |
| 387 | 4 |  |  |  | Cc1ccc2[nH]ncc2c1-c1cc(-c2ccnc(OCCc3cc[nH]n3)n2)nc(C(N)=O)c1N [Compound 265] |
|  | 5 |  |  | 114 | Cc1ccc2[nH]ncc2c1-c1nc(-c2cc(F)ccc2NS(=O)(=O)C2(C)CC2)nc(C(N)=O)c1N [Compound 482] |
|  | 4 | 22 |  |  | Cc1ccc2[nH]ncc2c1-c1nc(-c2cc(Cl)ncc2NC2CCOCC2)nc(C(N)=O)c1N [Compound 839] |
| 289 | 5 |  |  |  | Cc1ccc2[nH]ncc2c1-c1nc(-c2cccc3c2NC(=O)C3)nc(C(N)=O)c1N [Compound 385] |
| 2420 | 466 |  |  |  | Cc1ccc2[nH]ncc2c1-c1cc(-c2ccnc(N[C@H](CO)c3ccccc3)n2)nc(C(N)=O)c1N (atropisomer, axis not shown) [Compound 371] |
|  | < 3 | 95 |  |  | Cc1ccc2[nH]ncc2c1-c1nc(-c2cc(F)cnc2NC2(C(F)(F)F)CC2)nc(C(N)=O)c1N [Compound 908] |
|  | 6 |  |  | 228 | NC(=O)c1nc(-c2cc(F)c(F)cc2NCC(F)F)nc(-c2c(Cl)ccc3[nH]ncc23)c1N [Compound 468] |
| 652 | 8 |  |  |  | Cc1ccc2[nH]ncc2c1-c1nc(-c2cccc(OCC#N)c2)nc(C(N)=O)c1N [Compound 288] |
| 167 | 6 |  |  |  | Cc1nnc(-c2cccc(-c3nc(C(N)=O)c(N)c(-c4c(C)ccc5[nH]ncc45)n3)c2)o1 [Compound 290] |
| 983 | 7 |  |  |  | COC(COc1cccc(-c2cc(-c3c(C)ccc4[nH]ncc34)c(N)c(C(N)=O)n2)n1)C1CC1 (stereo not drawn) [Compound 344] |
|  | 5 |  |  | 8 | Cc1ccc(-c2nc(C(N)=O)c(N)c(-c3c(C)ccc4[nH]ncc34)n2)c(Nc2nccnc2C)n1 [Compound 658] |
|  | 5 |  |  | 184 | Cc1ccc2[nH]ncc2c1-c1nc(-c2ccccc2NCC(F)(F)F)cc(C(N)=O)c1N [Compound 413] |
|  | 14 | > 10000 |  |  | Cc1ccc2[nH]ncc2c1-c1nc(-c2ccccc2-c2ncc[nH]2)nc(C(N)=O)c1N [Compound 808] |
|  | 100 |  |  |  | Cc1ccc2[nH]ncc2c1-c1cc(-c2ccnc(OCc3noc(C4CCCC4)n3)n2)nc(C(N)=O)c1N [Compound 300] |
|  | 18 |  |  |  | Cc1ccc2[nH]ncc2c1-c1cc(-c2ccnc(N3CC[C@@H](O)C3)n2)nc(C(N)=O)c1N [Compound 347] |
